Biological target: human BACE-1 (Homo sapiens, UniProt P56817)
Assay: CEREP BACE Inhibition Assay
Assay type: biochemical
Settings: recombinant enzyme; for inhibition at 1 µM / inhibition at 0.3 µM: percent inhibition of the control activity; for inhibition at 1 µM: read-out: % Inhibition @ 1.0 μM; for IC50: read-out: IC50
Protocol: More specifically the assay, run at 50 μL in a 96 well plate, evaluated the effect of test compound on the activity of the human BACE-1 quantified by measuring the formation of Mca-S-E-V-N-L-NH2 from […], using a recombinant enzyme. The test compound, reference compound or water (control) were added to a buffer containing 0.09 M sodium acetate (pH 4.5) and 0.25 μg BACE-1. Compound interference with the fluorimetric detection method due to autofluorescence was then checked by measurements at the wavelengths defined to evaluate the enzyme activity. […] For control basal measurement, the substrate was omitted from the reaction mixture. […] The standard inhibitory reference compound was OM99-2, which was tested in each experiment at several concentrations to obtain an inhibition curve from which its IC50 value was calculated.

human BACE-1, sequence (P56817 46-501): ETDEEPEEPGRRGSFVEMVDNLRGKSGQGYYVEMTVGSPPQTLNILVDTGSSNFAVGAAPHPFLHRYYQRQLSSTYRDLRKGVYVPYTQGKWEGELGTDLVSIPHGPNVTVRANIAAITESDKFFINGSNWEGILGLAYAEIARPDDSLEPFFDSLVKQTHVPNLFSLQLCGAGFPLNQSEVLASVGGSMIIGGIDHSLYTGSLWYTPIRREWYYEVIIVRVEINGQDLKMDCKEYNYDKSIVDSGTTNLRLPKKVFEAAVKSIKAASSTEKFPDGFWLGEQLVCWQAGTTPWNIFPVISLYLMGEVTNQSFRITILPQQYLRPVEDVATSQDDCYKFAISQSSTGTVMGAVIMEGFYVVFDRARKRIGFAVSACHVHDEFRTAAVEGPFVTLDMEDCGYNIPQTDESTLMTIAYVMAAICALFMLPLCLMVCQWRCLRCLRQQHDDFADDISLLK

inhibition at 1 µM	inhibition at 0.3 µM	IC50	SMILES
3%	–	–	COCC(=O)NC1=Nc2cnc(Oc3ccccc3)cc2CN1C(Cn1cc(C(C)(C)C)nn1)C1CCCCC1 (stereo in doubt) [Compound 247, N-{3-[2-(4-tert-Butyl-[1,2,3]triazol-1-yl)-1-(S)-cyclohexyl-ethyl]-6-phenoxy-3,4-dihydro-pyrido[3,4-d]pyrimidin-2-yl}-2-methoxy-acetamide]
–	95%	140 nM	COC(=O)[C@@H](COCc1ccccc1)NC(=O)CC[C@@H](C(C)C)N1Cc2cc(Oc3ccccc3)ncc2N=C1N [Compound 53]
–	97%	170 nM	CC(C)[C@H](CCC(=O)N[C@H](COCc1ccccc1)C(=O)O)N1Cc2cc(Oc3ccccc3)ncc2N=C1N [Compound 54]
–	93%	75 nM	COC(=O)[C@H](COCc1ccccc1)N(C)C(=O)CC[C@@H](C1CCOCC1)N1Cc2cc(Oc3ccccc3)ncc2N=C1N [Compound 56]
–	57%	270 nM	CN(C(=O)CC[C@@H](C1CCOCC1)N1Cc2cc(Oc3ccccc3)ncc2N=C1N)[C@@H](COCc1ccccc1)C(=O)O [Compound 58]
–	91%	100 nM	CN(C(=O)CC[C@@H](C1CCOCC1)N1Cc2cc(Oc3ccccc3)ncc2N=C1N)[C@H](COC(C)(C)C)C(=O)O [Compound 60]
–	81%	240 nM	COC(=O)[C@H](COC(C)(C)C)NC(=O)CC[C@@H](C1CCCCC1)N1Cc2cc(Oc3ccccc3)ncc2N=C1N [Compound 61]
–	65%	250 nM	CC(C)(C)OC[C@H](NC(=O)CC[C@@H](C1CCCCC1)N1Cc2cc(Oc3ccccc3)ncc2N=C1N)C(=O)O [Compound 62]
–	91%	110 nM	COC(=O)[C@H](COC(C)(C)C)N(C)C(=O)CC[C@@H](C1CCCCC1)N1Cc2cc(Oc3ccccc3)ncc2N=C1N [Compound 65]
–	96%	260 nM	CN(C(=O)CC[C@@H](C1CCCCC1)N1Cc2cc(Oc3ccccc3)ncc2N=C1N)[C@@H](COC(C)(C)C)C(=O)O [Compound 66]
–	57%	340 nM	COC(=O)[C@H](COC(C)(C)C)NC(=O)CC[C@@H](C(C)C)N1Cc2cc(Oc3ccccc3)ncc2N=C1N [Compound 69]
–	66%	260 nM	CC(C)[C@H](CCC(=O)N[C@@H](COC(C)(C)C)C(=O)O)N1Cc2cc(Oc3ccccc3)ncc2N=C1N [Compound 70]
90%	–	240 nM	CC(C)(C)OC(=O)CC[C@@H](C1CCCCC1)N1Cc2cc(Oc3ccccc3)ncc2N=C1N [Compound 75]
–	78%	330 nM	NC1=Nc2cnc(Oc3ccccc3)cc2CN1[C@@H](CCC(=O)N(Cc1nnn[nH]1)C1CCCCC1)C1CCCCC1 [Compound 77, 4-(2-Amino-6-phenoxy-4H-pyrido[3,4-d]pyrimidin-3-yl)-4-(S)—N-dicyclohexyl-N-(1H-tetrazol-5-ylmethyl)-butyramide]
–	91%	190 nM	NC1=Nc2cnc(Oc3ccccc3)cc2CN1[C@@H](CCC(=O)N(Cc1ncc[nH]1)C1CCCCC1)C1CCCCC1 [Compound 78, 4-(2-Amino-6-phenoxy-4H-pyrido[3,4-d]pyrimidin-3-yl)-4-(S),N-dicyclohexyl-N-(1H-imidazol-2-ylmethyl)-butyramide]
–	88%	150 nM	NC1=Nc2cnc(Oc3ccccc3)cc2CN1[C@@H](CCC(=O)N(Cc1ccncc1)C1CCCCC1)C1CCCCC1 [Compound 79]
–	97%	170 nM	NC1=Nc2cnc(Oc3ccccc3)cc2CN1[C@@H](CCC(=O)N(Cc1nnc[nH]1)C1CCCCC1)C1CCCCC1 [Compound 80, 4-(2-Amino-6-phenoxy-4H-pyrido[3,4-d]pyrimidin-3-yl)-4-(S),N-dicyclohexyl-N-(4H-[1,2,4]triazol-3-ylmethyl)-butyramide]
99%	–	90 nM	Cn1ccnc1CN(C(=O)CC[C@@H](C1CCCCC1)N1Cc2cc(Oc3ccccc3)ncc2N=C1N)C1CCCCC1 [Compound 83]
–	100%	100 nM	NC1=Nc2cnc(Oc3ccccc3)cc2CN1[C@@H](CCC(=O)N(CC(=O)O)C1CCCCC1)C1CCCCC1 [Compound 84, {[4-(2-Amino-6-phenoxy-4H-pyrido[3,4-d]pyrimidin-3-yl)-4-(S)-cyclohexyl-butyryl]cyclohexyl-amino}-acetic acid]
–	99%	120 nM	CC(C)[C@H](CCC(=O)N(CC(=O)O)C1CCCCC1)N1Cc2cc(Oc3ccccc3)ncc2N=C1N [Compound 86]
–	84%	96 nM	COC(=O)[C@@H](COC(C)(C)C)NC(=O)CC[C@@H](C(C)C)N1Cc2cc(Oc3ccccc3)ncc2N=C1N [Compound 87]
–	98%	100 nM	CC(C)[C@H](CCC(=O)N[C@H](COC(C)(C)C)C(=O)O)N1Cc2cc(Oc3ccccc3)ncc2N=C1N [Compound 88]
–	70%	340 nM	NC1=Nc2cnc(Oc3ccccc3)cc2CN1[C@@H](CCC(=O)N1CCCC[C@H]1C(=O)O)C1CCCCC1 [Compound 91]
–	94%	110 nM	NC1=Nc2cnc(Oc3ccccc3)cc2CN1[C@@H](CCC(=O)N1CCCC[C@H]1CC(=O)O)C1CCCCC1 [Compound 93]
–	86%	210 nM	CC(C)[C@H](CCC(=O)N[C@@H](COC(C)(C)C)c1nnnn1Cc1ccccc1)N1Cc2cc(Oc3ccccc3)ncc2N=C1N [Compound 95]
–	72%	150 nM	CC(C)[C@H](CCC(=O)N[C@H](COC(C)(C)C)C(=O)N1CCCCC1)N1Cc2cc(Oc3ccccc3)ncc2N=C1N [Compound 98]
–	93%	110 nM	CC(C)(C)OC[C@@H](NC(=O)CC[C@@H](C1CCCCC1)N1Cc2cc(Oc3ccccc3)ncc2N=C1N)C(=O)N1CCCCC1 [Compound 100]
–	43%	320 nM	CC(C)[C@H](CCC(=O)N[C@@H](COC(C)(C)C)CN1CCCCC1)N1Cc2cc(Oc3ccccc3)ncc2N=C1N [Compound 101]

SMILES	inhibition at 1 µM	inhibition at 0.3 µM	IC50
COC(=O)[C@@H](COC(C)(C)C)NC(=O)CC[C@@H](C1CCCCC1)N1Cc2cc(Oc3ccccc3)ncc2N=C1N [Compound 63, 2-[4-(2-Amino-6-phenoxy-4H-pyrido[3,4-d]pyrimidin-3-yl)-4-(S)-cyclohexyl-butyryl-(R)-amino]-3-tert-butoxy-propionic acid methyl ester]	–	94%	190 nM
CC(C)[C@H](CCC(=O)N[C@@H](COC(C)(C)C)c1nnn[nH]1)N1Cc2cc(Oc3ccccc3)ncc2N=C1N [Compound 97, 4-(2-Amino-6-phenoxy-4H-pyrido[3,4-d]pyrimidin-3-yl)-5-methyl-(S)-hexanoic acid [2-(R)-tert-butoxy-1-(1H-tetrazol-5-yl)-ethyl]-amide]	–	96%	110 nM
CC(C)(C)OC[C@H](CN1CCOCC1)NC(=O)CC[C@@H](C1CCCCC1)N1Cc2cc(Oc3ccccc3)ncc2N=C1N [Compound 102, 4-(2-Amino-6-phenoxy-4H-pyrido[3,4-d]pyrimidin-3-yl)-N-(2-(R)-tert-butoxy-1-morpholin-4-ylmethyl-ethyl)-4-(S)-cyclohexyl-butyramide]	–	55%	460 nM

— patent US7531545B2, “2-amino-3,4-dihydro-pyrido[3,4-d]pyrimidine derivatives useful as inhibitors of β-secretase (BACE)” (Janssen Pharmaceutica, N.V., priority 2005, dated 2009)
